{
  "source": "PubChem BioAssay AID2060492",
  "about": "(Molecular Pharmacology Branch, DTP, NCI, 2025);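 further: spheroids exposed to compounds for seven days before readout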",
  "test_system": "695427-040-R-J1-PDC complex spheroids, viability percent T/C",
  "assay": "Anticancer human tumor 695427-040-R-J1-PDC patient-derived colon adenocarcinoma cell line growth inhibition [GQUAD]",
  "settings": "for IC50: curve of first compound; for viability, T/C: stronger effect = lower value",
  "how_it_was_run": "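Viability of tumor cells grown as complex spheroids with endothelial and stromal cells, exposed to drug combinations. Top concentration at or near clinical Cmax (else 10 microM), diluted in half-log increments.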",
  "data": [
    {"smiles": "C=CC(=O)N1CCN(c2nc(=O)n(-c3c(C)ccnc3C(C)C)c3nc(-c4c(O)cccc4F)c(F)cc23)C(C)C1", "note": "(configuration not stated) + Cc1[nH]c2ccc(F)cc2c1-c1nc2c3cccnc3c3ncccc3c2[nH]1", "values": [
      {"measurement": "IC50", "setting": "second compound 0.0316 µM", "value": "> 10", "unit": "µM"},
      {"measurement": "IC50", "setting": "second compound 0.1 µM", "value": "> 10", "unit": "µM"},
      {"measurement": "IC50", "setting": "second compound 0.316 µM", "value": "> 10", "unit": "µM"},
      {"measurement": "IC50", "setting": "second compound 1 µM", "value": "> 10", "unit": "µM"},
      {"measurement": "IC50", "setting": "second compound 3.16 µM", "value": "> 10", "unit": "µM"},
      {"measurement": "IC50", "setting": "second compound 10 µM", "value": "> 10", "unit": "µM"},
      {"measurement": "viability, T/C", "setting": "second compound 0.0316 µM, first compound 0.0316 µM", "value": 108, "unit": "%"},
      {"measurement": "viability, T/C", "setting": "second compound 0.0316 µM, first compound 0.1 µM", "value": 86, "unit": "%"},
      {"measurement": "viability, T/C", "setting": "second compound 0.0316 µM, first compound 0.316 µM", "value": 107, "unit": "%"},
      {"measurement": "viability, T/C", "setting": "second compound 0.0316 µM, first compound 1 µM", "value": 83, "unit": "%"},
      {"measurement": "viability, T/C", "setting": "second compound 0.0316 µM, first compound 3.16 µM", "value": 93.2, "unit": "%"},
      {"measurement": "viability, T/C", "setting": "second compound 0.0316 µM, first compound 10 µM", "value": 90.2, "unit": "%"},
      {"measurement": "viability, T/C", "setting": "second compound 0.1 µM, first compound 0.0316 µM", "value": 101, "unit": "%"},
      {"measurement": "viability, T/C", "setting": "second compound 0.1 µM, first compound 0.1 µM", "value": 87.6, "unit": "%"},
      {"measurement": "viability, T/C", "setting": "second compound 0.1 µM, first compound 0.316 µM", "value": 99.9, "unit": "%"},
      {"measurement": "viability, T/C", "setting": "second compound 0.1 µM, first compound 1 µM", "value": 67.8, "unit": "%"},
      {"measurement": "viability, T/C", "setting": "second compound 0.1 µM, first compound 3.16 µM", "value": 104, "unit": "%"},
      {"measurement": "viability, T/C", "setting": "second compound 0.1 µM, first compound 10 µM", "value": 106, "unit": "%"},
      {"measurement": "viability, T/C", "setting": "second compound 0.316 µM, first compound 0.0316 µM", "value": 102, "unit": "%"},
      {"measurement": "viability, T/C", "setting": "second compound 0.316 µM, first compound 0.1 µM", "value": 95.7, "unit": "%"},
      {"measurement": "viability, T/C", "setting": "second compound 0.316 µM, first compound 0.316 µM", "value": 84.2, "unit": "%"},
      {"measurement": "viability, T/C", "setting": "second compound 0.316 µM, first compound 1 µM", "value": 94.8, "unit": "%"},
      {"measurement": "viability, T/C", "setting": "second compound 0.316 µM, first compound 3.16 µM", "value": 86.9, "unit": "%"},
      {"measurement": "viability, T/C", "setting": "second compound 0.316 µM, first compound 10 µM", "value": 92.8, "unit": "%"},
      {"measurement": "viability, T/C", "setting": "second compound 1 µM, first compound 0.0316 µM", "value": 80.5, "unit": "%"},
      {"measurement": "viability, T/C", "setting": "second compound 1 µM, first compound 0.1 µM", "value": 90, "unit": "%"},
      {"measurement": "viability, T/C", "setting": "second compound 1 µM, first compound 0.316 µM", "value": 79.6, "unit": "%"},
      {"measurement": "viability, T/C", "setting": "second compound 1 µM, first compound 1 µM", "value": 101, "unit": "%"},
      {"measurement": "viability, T/C", "setting": "second compound 1 µM, first compound 3.16 µM", "value": 104, "unit": "%"},
      {"measurement": "viability, T/C", "setting": "second compound 1 µM, first compound 10 µM", "value": 76.8, "unit": "%"},
      {"measurement": "viability, T/C", "setting": "second compound 3.16 µM, first compound 0.0316 µM", "value": 69, "unit": "%"},
      {"measurement": "viability, T/C", "setting": "second compound 3.16 µM, first compound 0.1 µM", "value": 77.1, "unit": "%"},
      {"measurement": "viability, T/C", "setting": "second compound 3.16 µM, first compound 0.316 µM", "value": 81.5, "unit": "%"},
      {"measurement": "viability, T/C", "setting": "second compound 3.16 µM, first compound 1 µM", "value": 86.5, "unit": "%"},
      {"measurement": "viability, T/C", "setting": "second compound 3.16 µM, first compound 3.16 µM", "value": 90.3, "unit": "%"},
      {"measurement": "viability, T/C", "setting": "second compound 3.16 µM, first compound 10 µM", "value": 86.8, "unit": "%"},
      {"measurement": "viability, T/C", "setting": "second compound 10 µM, first compound 0.0316 µM", "value": 73.6, "unit": "%"},
      {"measurement": "viability, T/C", "setting": "second compound 10 µM, first compound 0.1 µM", "value": 81.2, "unit": "%"},
      {"measurement": "viability, T/C", "setting": "second compound 10 µM, first compound 0.316 µM", "value": 86.2, "unit": "%"},
      {"measurement": "viability, T/C", "setting": "second compound 10 µM, first compound 1 µM", "value": 82.7, "unit": "%"},
      {"measurement": "viability, T/C", "setting": "second compound 10 µM, first compound 3.16 µM", "value": 81.8, "unit": "%"},
      {"measurement": "viability, T/C", "setting": "second compound 10 µM, first compound 10 µM", "value": 69.1, "unit": "%"}
    ]}
  ]
}
